{
  "source": "patent US20240358861A1",
  "about": "“COMPOSITIONS AND METHODS OF FLUORESCEIN SODIUM FOR EARLY DIAGNOSIS OF CERVICAL CANCER” (THE MOEIN FAMILY TRUST, priority 2023, published 2024)",
  "key": {"[1]": {"test_system": "cervix", "assay": "Staining properties of FNa versus AA when tested", "set-up": "species or system human", "settings": "in vivo", "excerpt": "In some embodiments, FNa staining may be observed with an unaided eye. Using FNa as a staining agent enables use in low resource settings where access to a colposcope is not possible."}, "[2]": {"test_system": "cervix (cervical lesions)", "assay": "Colposcopy with AA then FNa staining, histopathology (biopsy) as reference diagnosis", "assay_type": "in vivo, human", "settings": "for Accuracy: correlation of staining with biopsy report; for Sensitivity / Specificity: diagnosis of high grade SIL or worse per histopathology; for Number of patients, stain negative, Total / Number of patients, stain positive, Total: all biopsies", "protocol": "The FNa formulation is applied in 3 steps, each using either a cotton swab or plastic pipette for delivery and continuing until all solution is dispensed: a) Pre-rinse with 10 mL of normal saline to remove cervical mucus. b) Apply 10 mL of a FNa delivery solution over the cervix. Solution in the posterior cul-de-sac is picked up with the pipette and resprayed, at least once, then discarded. c) after imaging or diagnosis, post-rinse with 10 mL of normal saline."}, "[3]": {"test_system": "cervical lesions (CIN)", "assay": "Lesion grade stained, shown by p16, Ki67 and c-myc FISH staining of specimens", "set-up": "species or system human"}},
  "data": [
    {"smiles": "O=C1OC2(c3ccc(O)cc3Oc3cc(O)ccc32)c2ccccc21", "note": "[FNa, Fluorescein (3′,6′-dihydrospiro[isobenzofuran-1(3H),9′-[9H]xanthene]-3-one) sodium]", "values": [
      {"measurement": "Burning sensation", "setting": "[1]", "value": "did not cause the same burning sensation"},
      {"measurement": "Number of patients", "setting": "[2]; No pap smear (n = 5), stain Negative, Benign biopsy n = 6", "value": 0},
      {"measurement": "Number of patients", "setting": "[2]; No pap smear (n = 5), stain Negative, High grade biopsy (n = 26)", "value": 0},
      {"measurement": "Number of patients", "setting": "[2]; No pap smear (n = 5), stain Negative, Invasive (n = 5)", "value": 0},
      {"measurement": "Number of patients", "setting": "[2]; No pap smear (n = 5), stain Negative, Low grade Biopsy (n = 41)", "value": 1},
      {"measurement": "Number of patients", "setting": "[2]; No pap smear (n = 5), stain Negative, all", "value": 1},
      {"measurement": "Number of patients", "setting": "[2]; No pap smear (n = 5), stain Positive, Benign biopsy n = 6", "value": 0},
      {"measurement": "Number of patients", "setting": "[2]; No pap smear (n = 5), stain Positive, High grade biopsy (n = 26)", "value": 1},
      {"measurement": "Number of patients", "setting": "[2]; No pap smear (n = 5), stain Positive, Invasive (n = 5)", "value": 0},
      {"measurement": "Number of patients", "setting": "[2]; No pap smear (n = 5), stain Positive, Low grade Biopsy (n = 41)", "value": 3},
      {"measurement": "Number of patients", "setting": "[2]; No pap smear (n = 5), stain Positive, all", "value": 4},
      {"measurement": "Number of patients", "setting": "[2]; Pap smear High grade (n = 22), stain Negative, Benign biopsy n = 6", "value": 2},
      {"measurement": "Number of patients", "setting": "[2]; Pap smear High grade (n = 22), stain Negative, High grade biopsy (n = 26)", "value": 0},
      {"measurement": "Number of patients", "setting": "[2]; Pap smear High grade (n = 22), stain Negative, Invasive (n = 5)", "value": 0},
      {"measurement": "Number of patients", "setting": "[2]; Pap smear High grade (n = 22), stain Negative, Low grade Biopsy (n = 41)", "value": 0},
      {"measurement": "Number of patients", "setting": "[2]; Pap smear High grade (n = 22), stain Negative, all", "value": 2},
      {"measurement": "Number of patients", "setting": "[2]; Pap smear High grade (n = 22), stain Positive, Benign biopsy n = 6", "value": 0},
      {"measurement": "Number of patients", "setting": "[2]; Pap smear High grade (n = 22), stain Positive, High grade biopsy (n = 26)", "value": 12},
      {"measurement": "Number of patients", "setting": "[2]; Pap smear High grade (n = 22), stain Positive, Invasive (n = 5)", "value": 3},
      {"measurement": "Number of patients", "setting": "[2]; Pap smear High grade (n = 22), stain Positive, Low grade Biopsy (n = 41)", "value": 5},
      {"measurement": "Number of patients", "setting": "[2]; Pap smear High grade (n = 22), stain Positive, all", "value": 20},
      {"measurement": "Number of patients", "setting": "[2]; Pap smear Invasive (n = 5), stain Negative, Benign biopsy n = 6", "value": 0},
      {"measurement": "Number of patients", "setting": "[2]; Pap smear Invasive (n = 5), stain Negative, High grade biopsy (n = 26)", "value": 0},
      {"measurement": "Number of patients", "setting": "[2]; Pap smear Invasive (n = 5), stain Negative, Invasive (n = 5)", "value": 0},
      {"measurement": "Number of patients", "setting": "[2]; Pap smear Invasive (n = 5), stain Negative, Low grade Biopsy (n = 41)", "value": 0},
      {"measurement": "Number of patients", "setting": "[2]; Pap smear Invasive (n = 5), stain Negative, all", "value": 0},
      {"measurement": "Number of patients", "setting": "[2]; Pap smear Invasive (n = 5), stain Positive, Benign biopsy n = 6", "value": 0},
      {"measurement": "Number of patients", "setting": "[2]; Pap smear Invasive (n = 5), stain Positive, High grade biopsy (n = 26)", "value": 4},
      {"measurement": "Number of patients", "setting": "[2]; Pap smear Invasive (n = 5), stain Positive, Invasive (n = 5)", "value": 1},
      {"measurement": "Number of patients", "setting": "[2]; Pap smear Invasive (n = 5), stain Positive, Low grade Biopsy (n = 41)", "value": 0},
      {"measurement": "Number of patients", "setting": "[2]; Pap smear Invasive (n = 5), stain Positive, all", "value": 5},
      {"measurement": "Number of patients", "setting": "[2]; Pap smear Low grade (n = 46), stain Negative, Benign biopsy n = 6", "value": 4},
      {"measurement": "Number of patients", "setting": "[2]; Pap smear Low grade (n = 46), stain Negative, High grade biopsy (n = 26)", "value": 0},
      {"measurement": "Number of patients", "setting": "[2]; Pap smear Low grade (n = 46), stain Negative, Invasive (n = 5)", "value": 0},
      {"measurement": "Number of patients", "setting": "[2]; Pap smear Low grade (n = 46), stain Negative, Low grade Biopsy (n = 41)", "value": 3},
      {"measurement": "Number of patients", "setting": "[2]; Pap smear Low grade (n = 46), stain Negative, all", "value": 7},
      {"measurement": "Number of patients", "setting": "[2]; Pap smear Low grade (n = 46), stain Positive, Benign biopsy n = 6", "value": 0},
      {"measurement": "Number of patients", "setting": "[2]; Pap smear Low grade (n = 46), stain Positive, High grade biopsy (n = 26)", "value": 9},
      {"measurement": "Number of patients", "setting": "[2]; Pap smear Low grade (n = 46), stain Positive, Invasive (n = 5)", "value": 1},
      {"measurement": "Number of patients", "setting": "[2]; Pap smear Low grade (n = 46), stain Positive, Low grade Biopsy (n = 41)", "value": 29},
      {"measurement": "Number of patients", "setting": "[2]; Pap smear Low grade (n = 46), stain Positive, all", "value": 39},
      {"measurement": "Accuracy", "setting": "[2]", "value": "Accuracy = 94%"},
      {"measurement": "Sensitivity", "setting": "[2]", "value": 94, "unit": "%"},
      {"measurement": "Specificity", "setting": "[2]", "value": 86, "unit": "%"},
      {"measurement": "Number of patients, stain negative, Total", "setting": "[2]", "value": 10},
      {"measurement": "Number of patients, stain negative, biopsy Ca, HG, LG", "setting": "[2]", "value": 4},
      {"measurement": "Number of patients, stain positive, Total", "setting": "[2]", "value": 68},
      {"measurement": "Number of patients, stain positive, biopsy Ca, HG, LG", "setting": "[2]", "value": 67}
    ]},
    {"smiles": "CC(=O)O", "note": "[AA, acetic acid]", "values": [
      {"measurement": "Lesion grades stained", "setting": "[3]", "value": "stains any lesion from CIN 1 and worse"},
      {"measurement": "Burning sensation", "setting": "[1]", "value": "burning sensation that AA causes"},
      {"measurement": "More false positives than the other stain", "setting": "[2]; AA versus FNa, patients with low grade SIL per histopathology", "value": "three"},
      {"measurement": "Number of patients Acetic acid positive", "setting": "[2]; No pap smear (n = 5)", "value": 5},
      {"measurement": "Number of patients Acetic acid positive", "setting": "[2]; Pap smear High grade (n = 22)", "value": 20},
      {"measurement": "Number of patients Acetic acid positive", "setting": "[2]; Pap smear Invasive (n = 5)", "value": 5},
      {"measurement": "Number of patients Acetic acid positive", "setting": "[2]; Pap smear Low grade (n = 46)", "value": 44},
      {"measurement": "Accuracy", "setting": "[2]", "value": "Accuracy = 94%"},
      {"measurement": "Sensitivity", "setting": "[2]", "value": 94, "unit": "%"},
      {"measurement": "Specificity", "setting": "[2]", "value": 43, "unit": "%"},
      {"measurement": "Missed high grade lesions", "setting": "[2]; in vivo", "value": "Neither AA nor FNa missed any high grade lesions"},
      {"measurement": "Number of patients, stain negative, Total", "setting": "[2]", "value": 4},
      {"measurement": "Number of patients, stain negative, biopsy Ca, HG, LG", "setting": "[2]", "value": 1},
      {"measurement": "Number of patients, stain positive, Total", "setting": "[2]", "value": 74},
      {"measurement": "Number of patients, stain positive, biopsy Ca, HG, LG", "setting": "[2]", "value": 70}
    ]}
  ]
}
